Measurements as given in PMC8453635, “Piperidine Azasugars Bearing Lipophilic Chains: Stereoselective Synthesis and Biological Activity as Inhibitors of Glucocerebrosidase (GCase)” (The Journal of Organic Chemistry, 2021).

Columns and labels:
Format in all cases: biochemical
GCase = target: T1, GCase (Homo sapiens, UniProt P04062); assay: GCase inhibition in human leukocyte homogenates; conditions: for GCase inhibition [%]: human leukocytes extracts incubated with azasugars (1 mM); for IC50: human leukocytes from healthy donors, substrate 4-methylumbelliferyl-β-D-glucoside 3.33 mM
T1 construct: screened toward GCase in leukocytes isolated from healthy donors (controls); from tissue; host or cells: leukocytes isolated from healthy donors, disrupted by sonication
T1 sequence (P04062 40-536): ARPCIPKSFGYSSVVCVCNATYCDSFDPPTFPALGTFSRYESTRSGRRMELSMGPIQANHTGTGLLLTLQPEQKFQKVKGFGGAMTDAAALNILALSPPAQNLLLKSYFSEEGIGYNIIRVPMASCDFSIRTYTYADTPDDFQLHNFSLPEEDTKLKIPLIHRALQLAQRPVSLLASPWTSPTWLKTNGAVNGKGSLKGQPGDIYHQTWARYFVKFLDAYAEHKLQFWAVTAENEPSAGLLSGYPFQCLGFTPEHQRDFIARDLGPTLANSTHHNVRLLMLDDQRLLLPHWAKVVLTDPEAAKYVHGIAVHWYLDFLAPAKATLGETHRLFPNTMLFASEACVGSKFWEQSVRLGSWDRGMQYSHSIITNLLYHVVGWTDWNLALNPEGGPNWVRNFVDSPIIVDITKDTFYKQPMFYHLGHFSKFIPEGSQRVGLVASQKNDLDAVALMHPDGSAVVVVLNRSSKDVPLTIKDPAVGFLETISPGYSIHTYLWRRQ
Method: Compounds 14, 15, and 33·HCl were then tested at 1 mM for GCase inhibition in human leukocyte homogenates. The results obtained were compared with data of previously reported compounds 9, 11, and 12.[12],[16],[17]
The compounds 14, 15, and 33·HCl were screened toward GCase in leukocytes isolated from healthy donors (controls). Isolated leukocytes were disrupted by sonication, and a micro BCA protein assay kit (Sigma-Aldrich) was used to determine the total protein amount for the enzymatic assay, according to the manufacturer instructions. Enzyme activity was measured in a flat-bottomed 96-well plate. Compound solution (3 μL), 4.29 μg/μL leukocytes homogenate (7 μL), and substrate 4-methylumbelliferyl-β-D-glucoside (3.33 mM, 20 μL, Sigma-Aldrich) in citrate/phosphate buffer (0.1:0.2, M/M, pH 5.8) containing sodium taurocholate (0.3%) and Triton X-100 (0.15%) at 37 °C were incubated for 1 h. The reaction was stopped by addition of sodium carbonate (200 μL; 0.5 M, pH 10.7) containing Triton X-100 (0.0025%), and the fluorescence of 4-methylumbelliferone released by β-glucosidase activity was measured in SpectraMax M2 microplate reader (λex = 365 nm, λem = 435 nm; Molecular Devices). Percentage GCase inhibition is given with respect to the control (without compound). Data are mean SD (n = 3).
The IC50 values of inhibitors against GCase were determined by measuring the initial hydrolysis rate with 4-methylumbelliferyl-β-D-glucoside (3.33 mM). Data obtained were fitted by using the appropriate Equation (for more details, see the Supporting Information section).
Percentage of GCase inhibition of compounds 14, 15 and 33.HCl towards human GCase Percentage of GCase inhibition of the whole collection of compounds in human leukocytes extracts incubated with iminosugars at 1 mM concentration.
IC50 determination: The IC50 values of inhibitors against GCase were determined by measuring the initial hydrolysis rate with 4-methylumbelliferyl-β-D-glucoside (3.33 mM). Data obtained were fitted to the following equation using the Origin Microcal program. where Vi/Vo, represent the ratio between the activity measured in the presence of the inhibitor (Vi) and the activity of the control without the inhibitor (V0), “x” the inhibitor concentration, Max and Min, the maximal and minimal enzymatic activity observed, respectively.
(also on this page, place not known: Min IC x MinMax Vo Vi slope + […] […] […] […] […] […]+ −= 50 1 (V i) activity nmoli/mg/h)
(1 picture or pasted object on this page, not shown here)

[1] = system: α-glucosidase EC 3.2.1.20; assay: Commercial glycosidase screening
Method: (§1) Preliminary biological evaluation of compounds 14 and 15 (at 100 μM inhibitor concentration) was performed toward a panel of 12 commercial glycosidases (α-L-fucosidase EC 3.2.1.51 from Homo sapiens, α-galactosidase EC 3.2.1.22 from coffee beans, β-galactosidases EC 3.2.1.23 from Escherichia coli and Aspergillus oryzae, α-glucosidases EC 3.2.1.20 from yeast and rice, amyloglucosidase EC 3.2.1.3 from Aspergillus niger, β-glucosidase EC 3.2.1.21 from almonds, α-mannosidase EC 3.2.1.24 from Jack beans, β-mannosidase EC 3.2.1.25 from snail, and β-N-acetylglucosaminidases EC 3.2.1.52 from Jack beans and bovine kidney).
(§2) The percentage (%) of inhibition for compounds 14 and 15 toward the corresponding glycosidase was determined by quadruplicate in the presence of 100 μM of the inhibitor on the well. Each enzymatic assay (final volume 0.12 mL) contains 0.01–0.5 units/mL of the enzyme (with previous calibration) and 4.2 mM aqueous solution of the appropriate p-nitrophenyl glycopyranoside (substrate) buffered to the optimal pH of the enzyme. Enzyme and inhibitor were pre-incubated for 5 min at rt, and the reaction started by addition of the substrate. After 20 min of incubation at 37 °C, the reaction was stopped by addition of 0.1 mL of sodium borate solution (pH 9.8). The p-nitrophenolate formed was measured by visible absorption spectroscopy at 405 nm (Asys Expert 96 spectrophotometer). Under these conditions, the p-nitrophenolate released led to optical densities linear with both reaction time and concentration of the enzyme.
(§3) Biological screening towards commercial glycosidases
(§4) α-L-fucosidase EC 3.2.1.51
(§5) α-galactosidase EC 3.2.1.22
(§6) β-galactosidase EC 3.2.1.23
(§7) α-glucosidase EC 3.2.1.20
(§8) amyloglucosidase EC 3.2.1.3
(§9) β-glucosidase EC 3.2.1.21
(§10) α-mannosidase EC 3.2.1.24
(§11) β-mannosidase EC 3.2.1.25
(§12) β-N-acetylglucosaminidase EC 3.2.1.52
(§13) “-“: no inhibition (or less than 15%) detected.

[2] = system: β-N-acetylglucosaminidase EC 3.2.1.52; assay: Commercial glycosidase screening
Method: as §1, §2, §3, §4, §5, §6, §7, §8, §9, §10, §11, §12, §13

[3] = target: T2, β-galactosidase EC 3.2.1.23 (Aspergillus oryzae, UniProt Q2UCU3); assay: Commercial glycosidase screening; conditions: read-out: % Inhibition at 0.1 mM
T2 construct: purchased
Method: as §1, §2, §3, §4, §5, §6, §7, §8, §9, §10, §11, §12, §13

[4] = target: T3, β-galactosidase EC 3.2.1.23 (Escherichia coli, UniProt P00722); assay: Commercial glycosidase screening; conditions: read-out: % Inhibition at 0.1 mM
T3 construct: purchased
Method: as §1, §2, §3, §4, §5, §6, §7, §8, §9, §10, §11, §12, §13

T2 sequence (Q2UCU3 19-1005): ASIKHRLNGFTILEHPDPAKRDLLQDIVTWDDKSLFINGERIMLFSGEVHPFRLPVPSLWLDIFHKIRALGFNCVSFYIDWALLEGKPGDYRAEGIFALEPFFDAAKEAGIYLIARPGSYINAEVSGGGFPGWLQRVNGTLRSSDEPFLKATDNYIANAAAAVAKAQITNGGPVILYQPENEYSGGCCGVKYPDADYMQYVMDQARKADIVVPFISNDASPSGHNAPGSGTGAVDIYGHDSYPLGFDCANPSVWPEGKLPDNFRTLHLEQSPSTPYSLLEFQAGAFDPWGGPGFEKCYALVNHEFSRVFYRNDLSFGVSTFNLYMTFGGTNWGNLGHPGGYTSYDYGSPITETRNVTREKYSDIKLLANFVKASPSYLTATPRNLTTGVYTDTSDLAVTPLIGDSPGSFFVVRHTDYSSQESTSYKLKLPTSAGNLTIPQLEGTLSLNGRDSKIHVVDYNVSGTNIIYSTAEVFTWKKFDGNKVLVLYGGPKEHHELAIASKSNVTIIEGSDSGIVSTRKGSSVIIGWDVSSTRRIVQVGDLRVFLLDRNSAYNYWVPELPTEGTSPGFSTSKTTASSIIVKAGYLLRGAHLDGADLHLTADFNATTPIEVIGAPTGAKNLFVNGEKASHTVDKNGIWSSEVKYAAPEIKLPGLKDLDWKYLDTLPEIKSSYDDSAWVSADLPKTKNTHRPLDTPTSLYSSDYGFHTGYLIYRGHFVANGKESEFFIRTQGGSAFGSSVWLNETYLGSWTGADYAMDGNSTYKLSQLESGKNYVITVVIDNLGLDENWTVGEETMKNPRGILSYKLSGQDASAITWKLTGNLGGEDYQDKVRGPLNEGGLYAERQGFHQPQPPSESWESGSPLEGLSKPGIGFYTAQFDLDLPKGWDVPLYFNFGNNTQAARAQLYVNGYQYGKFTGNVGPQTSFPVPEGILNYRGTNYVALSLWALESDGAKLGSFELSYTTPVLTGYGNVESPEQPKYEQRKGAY
T3 sequence (P00722 2-1024): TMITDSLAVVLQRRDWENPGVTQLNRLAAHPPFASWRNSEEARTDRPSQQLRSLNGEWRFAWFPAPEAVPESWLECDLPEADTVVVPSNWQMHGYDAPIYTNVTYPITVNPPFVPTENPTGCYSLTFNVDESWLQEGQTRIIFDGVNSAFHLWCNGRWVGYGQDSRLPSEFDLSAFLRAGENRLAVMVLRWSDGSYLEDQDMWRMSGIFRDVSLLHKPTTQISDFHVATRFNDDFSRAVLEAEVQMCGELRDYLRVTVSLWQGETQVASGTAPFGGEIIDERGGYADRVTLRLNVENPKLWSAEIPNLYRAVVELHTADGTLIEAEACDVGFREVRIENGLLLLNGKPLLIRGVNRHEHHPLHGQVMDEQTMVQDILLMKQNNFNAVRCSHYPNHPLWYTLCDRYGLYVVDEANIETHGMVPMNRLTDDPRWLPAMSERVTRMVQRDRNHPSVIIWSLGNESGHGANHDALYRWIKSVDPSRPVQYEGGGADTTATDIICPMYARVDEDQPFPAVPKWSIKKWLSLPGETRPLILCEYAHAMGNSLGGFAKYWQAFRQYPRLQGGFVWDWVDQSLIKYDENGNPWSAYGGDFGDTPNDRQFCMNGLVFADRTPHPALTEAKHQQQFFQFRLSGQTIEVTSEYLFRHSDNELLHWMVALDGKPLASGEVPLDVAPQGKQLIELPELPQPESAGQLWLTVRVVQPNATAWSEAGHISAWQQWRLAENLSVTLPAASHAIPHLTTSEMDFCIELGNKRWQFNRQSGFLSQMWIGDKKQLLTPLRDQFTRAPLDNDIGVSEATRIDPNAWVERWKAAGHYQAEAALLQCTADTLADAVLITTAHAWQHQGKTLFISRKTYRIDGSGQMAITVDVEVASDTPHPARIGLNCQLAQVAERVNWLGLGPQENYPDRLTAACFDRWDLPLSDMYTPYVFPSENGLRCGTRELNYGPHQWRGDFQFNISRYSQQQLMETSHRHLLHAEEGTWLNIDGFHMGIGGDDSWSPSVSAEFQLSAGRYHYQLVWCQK

Compound | GCase inhibition [%] (GCase) | IC50 (GCase) [µM] | % Inhibition at 0.1 mM ([1]; rice) | % Inhibition at 0.1 mM ([1]; yeast) | % Inhibition at 0.1 mM ([2]; Jack beans) | % Inhibition at 0.1 mM ([2]; bovine kidney) | inhibition at 100 µM [3] [%] | inhibition at 100 µM [4] [%] | GCase inhibitory activity relative to monoalkylated counterpart 12 (GCase; comparison of IC50 values)
CCCCCCCC[C@@H]1[C@@H](O)[C@H](O)[C@H](O)CN1C(CCCCCCC)CCCCCCC.Cl [compound 33·HCl, (2R,3R,4R,5R)-2-Octyl-1-(pentadecan-8-yl)-piperidine-3,4,5-triol Hydrochloride] | 75 | 130 ± 15 | – | – | – | – | – | – | –
CCCCCCCC[C@H]1[C@@H](O)[C@H](O)[C@H](O)CN1CCCCCCCC [compound 14, (2S,3R,4R,5R)-1,2-Dioctylpiperidine-3,4,5-triol] | 100 | 100 ± 9 | - (“-“: no inhibition (or less than 15%) detected.) | - (“-“: no inhibition (or less than 15%) detected.) | - (“-“: no inhibition (or less than 15%) detected.) | - (“-“: no inhibition (or less than 15%) detected.) | < 15 | < 15 | –
CCCCCCCC[C@@H]1[C@@H](O)[C@H](O)[C@H](O)CN1CCCCCCCC [compound 15, (2R,3R,4R,5R)-1,2-Dioctylpiperidine-3,4,5-triol] | 100 | 15 ± 4 | - (“-“: no inhibition (or less than 15%) detected.) | - (“-“: no inhibition (or less than 15%) detected.) | - (“-“: no inhibition (or less than 15%) detected.) | - (“-“: no inhibition (or less than 15%) detected.) | < 15 | < 15 | twofold more active
